Results from US10669272B2, “Substituted naphthyridinone compounds useful as T cell activators” (BRISTOL-MYERS SQUIBB COMPANY, priority 2018, dated 2020).
Where a name gives a salt, the structure may show the parent alone. Read-outs that look alike come from different tables or passages of the source.

Assays:
[1] = test system: OT-1 CD8+ T cells with SIINFEKL-loaded MC38 tumor cells; experiment: Murine cytotoxic T lymphocyte assay (IFN-γ, OT-1 CTL with MC38 tumor cells); assay type: cell-based, mouse; conditions: read-out: msCTL INFg IC50
Description: 5. Murine Cytotoxic T Lymphocyte Assay
An antigen-specific cytolytic T-cell (CTL) assay was developed to evaluate functionally the ability of DGKα and DGKζ inhibitors to enhance effector T cell mediated tumor cell killing activity. CD8+ T-cells isolated from the OT-1 transgenic mouse recognize antigen presenting cells, MC38, that present the ovalbumin derived peptide […]. Recognition of the cognate antigen initiates the cytolytic activity of the OT-1 antigen-specific CD8+ T cells.
Functional CTL cells were generated as follows: OT-1 splenocytes from 8-12 week old mice were isolated and expanded in the presence of the […] peptide at 1 μg/mL and mIL2 at 10 U/mL. After three days, fresh media with […] was added. On day 5 of the expansion, the CD8+ T cells were isolated and ready for use. Activated CTL cells may be stored frozen for 6 months. Separately, one million MC38 tumor cells were pulsed with 1 μg/mL of […]-OVA peptide for 3 hours at 37° C. The cells were washed (3×) with fresh media to remove excess peptide. Finally, CTL cells that were pretreated with DGK inhibitors for 1 hour in a 96-well U bottom plate were combined with the antigen loaded MC38 tumor cells at a 1:10 ratio. The cells were then spun at 700 rpm for 5 min and placed in an incubator overnight at 37° C. After 24 hours, the supernatant was collected for analysis of IFN-γ cytokine levels by AlphaLisa purchased from Perkin Elmer.

[2] = target: T1, human DGKα (Homo sapiens, UniProt P23743); experiment: DGKα LIPGLO assay (extruded liposome substrate), in vitro DGK inhibition; assay type: biochemical; conditions: read-out: DGKa LIPGLO IC50
T1 construct: TVMV protease cleavage site (C); Hexa-His (C); made in house; host or cells: Sf9 insect cells (baculovirus, Bac-to-Bac)

[3] = target: T2, human DGKζ (Homo sapiens, UniProt Q13574); experiment: DGKζ LIPGLO assay (extruded liposome substrate), in vitro DGK inhibition; assay type: biochemical; conditions: read-out: DGKz LIPGLO IC50
T2 construct: TVMV protease cleavage site (C); Hexa-His (C); made in house; host or cells: Sf9 insect cells (baculovirus, Bac-to-Bac)

[4] = test system: Human venous whole blood; experiment: Human whole blood IFN-γ assay; assay type: cell-based; conditions: human whole blood, read-out: INFg Whole Blood Normalized Agonist EC50;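 further: blood from healthy donors exposed to compound for 1 h before stimulation with anti-CD3 and anti-CD28 at 1 µg/mL each, IFN-γ quantified in supernatant by AlphaLISA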
Description: Human Whole Blood IFN-γ Assay
Human venous whole blood (22.5 μL per well), obtained from healthy donors, was pre-treated with compounds for one hour at 37° C. in a humidified 95% air/5% CO2 incubator. The blood was stimulated with 2.5 μL anti-human CD3 and anti-CD28 mAb at a final concentration of 1 μg/mL each for 24 hours at 37° C. IFN-γ in the supernatants was measured using AlphLISA kit (Cat # AL217).

[5] = Homo sapiens, 24 h, normalized to 3 μM reference compound with anti-CD3 plus anti-CD28 as 100% activation
[6] = normalized to 3 μM reference compound with anti-CD3 plus anti-CD28 as 100% activation
[7] = Homo sapiens, 24 h, anti-CD3 plus anti-CD28, 24 hours, 3 μM reference compound = 100% activation

T2 sequence (Q13574 with tags, fused parts or gaps isoform Q13574-4): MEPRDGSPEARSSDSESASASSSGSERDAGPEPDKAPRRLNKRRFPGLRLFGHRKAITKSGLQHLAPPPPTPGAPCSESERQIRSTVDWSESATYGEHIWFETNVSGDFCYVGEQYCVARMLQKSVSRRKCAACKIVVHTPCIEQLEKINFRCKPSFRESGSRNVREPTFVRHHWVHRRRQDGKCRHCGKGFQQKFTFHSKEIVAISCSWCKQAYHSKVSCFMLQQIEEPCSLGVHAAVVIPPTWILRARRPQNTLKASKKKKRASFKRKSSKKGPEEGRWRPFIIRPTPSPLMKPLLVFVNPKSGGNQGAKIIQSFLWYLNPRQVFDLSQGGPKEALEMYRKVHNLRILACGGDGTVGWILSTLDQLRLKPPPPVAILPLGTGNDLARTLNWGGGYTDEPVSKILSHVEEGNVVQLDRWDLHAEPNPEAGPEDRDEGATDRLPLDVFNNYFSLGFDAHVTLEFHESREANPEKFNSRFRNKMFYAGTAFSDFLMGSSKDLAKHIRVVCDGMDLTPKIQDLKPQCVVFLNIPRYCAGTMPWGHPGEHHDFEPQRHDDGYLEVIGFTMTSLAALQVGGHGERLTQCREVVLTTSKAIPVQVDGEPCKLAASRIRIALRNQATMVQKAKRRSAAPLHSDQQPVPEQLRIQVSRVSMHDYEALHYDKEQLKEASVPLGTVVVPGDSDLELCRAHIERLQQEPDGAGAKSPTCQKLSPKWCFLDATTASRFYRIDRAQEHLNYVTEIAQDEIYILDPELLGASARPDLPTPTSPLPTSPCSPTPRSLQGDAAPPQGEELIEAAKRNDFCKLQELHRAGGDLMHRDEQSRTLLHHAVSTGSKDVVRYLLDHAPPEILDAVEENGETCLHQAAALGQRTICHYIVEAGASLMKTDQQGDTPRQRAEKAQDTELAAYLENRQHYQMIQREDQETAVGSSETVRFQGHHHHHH
T1 sequence (P23743 with tags, fused parts or gaps): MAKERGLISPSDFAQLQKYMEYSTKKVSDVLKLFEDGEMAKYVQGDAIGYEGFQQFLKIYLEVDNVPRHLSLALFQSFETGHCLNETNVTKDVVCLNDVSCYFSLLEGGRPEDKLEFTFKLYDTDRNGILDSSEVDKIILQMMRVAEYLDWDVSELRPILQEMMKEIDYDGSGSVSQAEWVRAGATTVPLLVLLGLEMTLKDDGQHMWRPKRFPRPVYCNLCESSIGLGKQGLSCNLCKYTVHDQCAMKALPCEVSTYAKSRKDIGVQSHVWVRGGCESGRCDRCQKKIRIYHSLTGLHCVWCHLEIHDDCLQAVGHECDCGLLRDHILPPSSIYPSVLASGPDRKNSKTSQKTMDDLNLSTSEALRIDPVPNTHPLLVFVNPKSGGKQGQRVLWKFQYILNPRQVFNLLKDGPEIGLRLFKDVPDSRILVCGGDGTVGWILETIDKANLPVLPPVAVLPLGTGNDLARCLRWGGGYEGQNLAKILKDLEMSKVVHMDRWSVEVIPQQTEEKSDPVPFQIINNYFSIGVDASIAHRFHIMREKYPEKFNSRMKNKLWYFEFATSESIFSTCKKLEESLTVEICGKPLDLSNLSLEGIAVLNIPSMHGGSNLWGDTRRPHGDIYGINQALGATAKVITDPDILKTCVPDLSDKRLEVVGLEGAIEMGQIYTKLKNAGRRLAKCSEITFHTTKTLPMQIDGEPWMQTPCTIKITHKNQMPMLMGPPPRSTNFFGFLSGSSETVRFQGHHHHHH

Row | Structure (SMILES) | IC50 ([1]; Mus musculus, MC-38) [µM] | IC50 ([2]; liposome (LIPGLO) assay) [µM] | IC50 ([3]; liposome (LIPGLO) assay) [µM] | EC50 [4, 5] [µM] | IC50 [1] [µM] | EC50 [4, 6] [µM] | IC50 ([1]; Mus musculus, MC-38, murine CTL, IFN-γ) [µM] | IC50 ([2]; DGKα liposome (LIPGLO) assay) [µM] | IC50 ([3]; DGKζ liposome (LIPGLO) assay) [µM] | EC50 [4, 7] [µM] | IC50 ([1]; murine CTL, IFN-γ) [µM]
1 | COC(=O)C1CN(c2c([N+](=O)[O-])c(=O)n(C)c3ccc(C#N)nc23)CCN1C(c1ccc(F)cc1)c1ccc(F)cc1 (single isomer, unassigned) [Example 73, Methyl 1-(bis(4-fluorophenyl)methyl)-4-(6-cyano-1-methyl-3-nitro-2-oxo-1,2-dihydro-1,5-naphthyridin-4-yl)piperazine-2-carboxylate] | 0.15 | 0.52 | 0.31 | 0.29 | – | – | – | – | – | – | –
2 | CC(C)C(=O)C1CN(c2cc(=O)n(C)c3ccc(C#N)nc23)CCN1C(c1ccc(F)cc1)c1ccc(F)cc1 (single isomer, unassigned) [Example 86, 8-(4-(bis(4-fluorophenyl)methyl)-3-isobutyrylpiperazin-1-yl)-5-methyl-6-oxo-5,6-dihydro-1,5-naphthyridine-2-carbonitrile] | – | 7.4 | 1.2 | 2.9 | 0.2 | – | – | – | – | – | –
3 | COC(=O)C1CN(c2cc(=O)n(C)c3ccc(C#N)nc23)CCN1C(c1ccc(F)cc1)c1ccc(F)cc1OC (single isomer, unassigned) [Example 72, Methyl 4-(6-cyano-1-methyl-2-oxo-1,2-dihydro-1,5-naphthyridin-4-yl)-1-((4-fluoro-2-methoxyphenyl)(4-fluorophenyl)methyl)piperazine-2-carboxylate] | – | 40 | 0.76 | – | 0.078 | 1.2 | – | – | – | – | –
4 | CC1C(C)N(C(c2ccc(F)cc2)c2ccc(F)cc2)CCN1c1cc(=O)n(C)c2ccc(C#N)nc12 (single isomer, unassigned) [Example 124, 8-(4-(bis(4-fluorophenyl)methyl)-2,3-dimethylpiperazin-1-yl)-5-methyl-6-oxo-5,6-dihydro-1,5-naphthyridine-2-carbonitrile] | – | 9.9 | 15 | – | 0.39 | 4.8 | – | – | – | – | –
5 | COC(=O)C1CN(c2c(F)c(=O)n(C)c3ccc(C#N)nc23)CCN1C(c1ccc(F)cc1)c1ccc(F)cc1 (single isomer, unassigned) [Example 74, Methyl 1-(bis(4-fluorophenyl)methyl)-4-(6-cyano-3-fluoro-1-methyl-2-oxo-1,2-dihydro-1,5-naphthyridin-4-yl)piperazine-2-carboxylate] | – | 23 | 8.6 | 8.6 | 0.29 | – | – | – | – | – | –
6 | CC(C)C(C)(F)C1CN(c2cc(=O)n(C)c3ccc(C#N)nc23)CCN1C(c1ccc(F)cc1)c1ccc(F)cc1 (single isomer, unassigned) [Example 90, 8-(4-(bis(4-fluorophenyl)methyl)-3-(2-fluoro-3-methylbutan-2-yl)piperazin-1-yl)-5-methyl-6-oxo-5,6-dihydro-1,5-naphthyridine-2-carbonitrile, TFA] | 4.8 | 240 | 240 | 20 | – | – | – | – | – | – | –
7 | COC(=O)C1CN(c2cc(=O)n(C)c3ccc(C#N)nc23)CCN1C(c1ccc(F)cc1)c1ccc(F)cc1OC (single isomer, unassigned) [Example 71, Methyl 4-(6-cyano-1-methyl-2-oxo-1,2-dihydro-1,5-naphthyridin-4-yl)-1-((4-fluoro-2-methoxyphenyl)(4-fluorophenyl)methyl)piperazine-2-carboxylate] | – | 240 | 52 | – | 3.8 | 10 | – | – | – | – | –
8 | COC(=O)C1CN(c2cc(=O)n(C)c3ccc(C#N)nc23)CCN1C(c1ccc(F)cc1)c1ccc(F)cc1OC (single isomer, unassigned) [Example 69, Methyl 4-(6-cyano-1-methyl-2-oxo-1,2-dihydro-1,5-naphthyridin-4-yl)-1-((4-fluoro-2-methoxyphenyl)(4-fluorophenyl)methyl)piperazine-2-carboxylate] | – | 21 | 0.85 | – | 0.22 | 2.5 | – | – | – | – | –
9 | Cn1c(=O)cc(N2CCN(C(c3ccc(F)cc3)c3ccc(F)cc3)CC2C2CC2)c2nc(C#N)ccc21 (single isomer, unassigned) [Example 23, 8-(4-(bis(4-fluorophenyl)methyl)-2-cyclopropylpiperazin-1-yl)-5-methyl-6-oxo-5,6-dihydro-1,5-naphthyridine-2-carbonitrile] | – | 240 | 100 | 10 | 1.4 | – | – | – | – | – | –
10 | CC(C)C(C)(O)C1CN(c2cc(=O)n(C)c3ccc(C#N)nc23)CCN1C(c1ccc(F)cc1)c1ccc(F)cc1 (single isomer, unassigned) [Example 89, 8-(4-(bis(4-fluorophenyl)methyl)-3-(2-hydroxy-3-methylbutan-2-yl)piperazin-1-yl)-5-methyl-6-oxo-5,6-dihydro-1,5-naphthyridine-2-carbonitrile] | – | 240 | 77 | – | 2.6 | 20 | – | – | – | – | –
11 | C[C@@H]1CN(c2c(C#N)c(=O)n(C)c3ccc(C#N)nc23)CCN1Cc1c(F)cc(F)cc1F [Example 986] | – | – | – | – | – | – | 3.7 | 4.2 | 2.6 | 20 | –
12 | CC1C(C)N(C(c2ccc(F)cc2)c2ccc(F)cc2)CCN1c1cc(=O)n(C)c2ccc(C#N)nc12 (single isomer, unassigned) [Example 123, 8-(4-(bis(4-fluorophenyl)methyl)-2,3-dimethylpiperazin-1-yl)-5-methyl-6-oxo-5,6-dihydro-1,5-naphthyridine-2-carbonitrile] | – | 2.4 | 240 | – | 2.4 | 35 | – | – | – | – | –
13 | COc1cc(F)ccc1C(c1ccc(F)cc1)N1C[C@H](C)N(c2c([N+](=O)[O-])c(=O)n(C)c3ccc(C#N)nc23)C[C@H]1C (single isomer, unassigned) [Example 122] | 3.8 | 210 | 4.8 | 10 | – | – | – | – | – | – | –
14 | COc1cc(F)ccc1C(c1ccc(F)cc1)N1C[C@H](C)N(c2c(C#N)c(=O)n(C)c3ccc(C#N)nc23)C[C@H]1C (single isomer, unassigned) [Example 112] | 1.6 | 77 | 2.6 | 7 | – | – | – | – | – | – | –
15 | Cn1c(=O)cc(N2CCN(C(c3ccc(F)cc3)c3ccc(F)cc3)CC2C2CC2)c2nc(C#N)ccc21 (single isomer, unassigned) [Example 24, 8-(4-(bis(4-fluorophenyl)methyl)-2-cyclopropylpiperazin-1-yl)-5-methyl-6-oxo-5,6-dihydro-1,5-naphthyridine-2-carbonitrile] | – | 1.5 | 3.9 | – | 0.2 | 13 | – | – | – | – | –
16 | C[C@@H]1CN(c2c(Cl)c(=O)n(C)c3ccc(C#N)nc23)CCN1C(c1ccc(Cl)cc1)c1ccc(Cl)cc1 [Example 105, (R)-8-(4-(bis(4-chlorophenyl)methyl)-3-methylpiperazin-1-yl)-7-chloro-5-methyl-6-oxo-5,6-dihydro-1,5-naphthyridine-2-carbonitrile, dimethylformamide] | 0.074 | 1.4 | 0.82 | 4.3 | – | – | – | – | – | – | –
17 | Cc1ccc(C(C)N2CCN(c3c(C#N)c(=O)n(C)c4ccc(C#N)nc34)C[C@H]2C)cc1 (single isomer, unassigned) [Example 952] | – | – | – | – | – | – | – | 0.59 | 2.3 | 3 | 5.9
18 | Cn1c(=O)cc(N2CCN(C(c3ccc(F)cc3)c3ccc(F)cc3)CC2C#N)c2nc(C#N)ccc21 (single isomer, unassigned) [Example 143, 8-(4-(bis(4-fluorophenyl)methyl)-2-cyanopiperazin-1-yl)-5-methyl-6-oxo-5,6-dihydro-1,5-naphthyridine-2-carbonitrile] | 0.33 | 5.4 | 6.4 | 5.7 | – | – | – | – | – | – | –
19 | Cc1ccc(C(c2ccc(F)cc2)N2C[C@H](C)N(c3cc(=O)n(C)c4ccc(C#N)nc34)C[C@H]2C)cc1 (single isomer, unassigned) [Example 251] | 0.032 | 0.67 | 0.32 | 0.44 | – | – | – | – | – | – | –
